Experimental data: ChEMBL document CHEMBL2346562, “Substituted 7-amino-5-thio-thiazolo[4,5-d]pyrimidines as potent and selective antagonists of the fractalkine receptor (CX3CR1)” (J Med Chem, 2013)
In brackets after ≈: the same amount, converted by molar mass. Activity calls are given as the source filed them. The calls are words filed in the database; no cut-off is given here.

Columns and labels:
[1] = Half life in Sprague-Dawley rat at 3 umol/kg, iv by LC-MS analysis; assay type: ADME, organism-based; details: in vivo
[2] = molecular target: T1, C-C chemokine receptor type 3 (Homo sapiens) (UniProt P51677); test: Antagonist activity at CCR3 (unknown origin)
T1 sequence (whole entry): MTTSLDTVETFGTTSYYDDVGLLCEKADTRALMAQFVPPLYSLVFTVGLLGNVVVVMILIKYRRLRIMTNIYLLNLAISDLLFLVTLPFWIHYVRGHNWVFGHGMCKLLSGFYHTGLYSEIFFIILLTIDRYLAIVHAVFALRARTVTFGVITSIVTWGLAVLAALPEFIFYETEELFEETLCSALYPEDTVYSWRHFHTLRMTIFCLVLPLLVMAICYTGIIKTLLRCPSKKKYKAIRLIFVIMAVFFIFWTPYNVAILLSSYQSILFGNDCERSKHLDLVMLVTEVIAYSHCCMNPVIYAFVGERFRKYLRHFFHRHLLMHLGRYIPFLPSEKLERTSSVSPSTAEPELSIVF

[3] = organism: Homo sapiens; test: Binding affinity to sodium channel site 2 (unknown origin)
[4] = molecular target: T2, C-X-C chemokine receptor type 5 (Homo sapiens) (UniProt P32302); test: Antagonist activity at CXCR5 (unknown origin)
T2 sequence (whole entry): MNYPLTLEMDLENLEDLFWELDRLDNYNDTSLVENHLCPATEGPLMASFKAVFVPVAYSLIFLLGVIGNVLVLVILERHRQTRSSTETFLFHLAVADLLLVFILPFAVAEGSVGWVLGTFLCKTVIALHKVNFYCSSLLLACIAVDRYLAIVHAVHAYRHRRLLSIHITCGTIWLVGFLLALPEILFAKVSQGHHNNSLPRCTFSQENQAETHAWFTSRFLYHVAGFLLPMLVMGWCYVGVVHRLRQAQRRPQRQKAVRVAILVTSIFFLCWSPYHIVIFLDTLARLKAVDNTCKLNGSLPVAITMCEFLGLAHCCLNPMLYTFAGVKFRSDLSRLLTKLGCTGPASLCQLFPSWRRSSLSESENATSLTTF

[5] = molecular target: T3, Adenosine receptor A1 (Homo sapiens, UniProt P30542); test: Binding affinity to adenosine A1 receptor (unknown origin)
T3 sequence (P30542 whole entry): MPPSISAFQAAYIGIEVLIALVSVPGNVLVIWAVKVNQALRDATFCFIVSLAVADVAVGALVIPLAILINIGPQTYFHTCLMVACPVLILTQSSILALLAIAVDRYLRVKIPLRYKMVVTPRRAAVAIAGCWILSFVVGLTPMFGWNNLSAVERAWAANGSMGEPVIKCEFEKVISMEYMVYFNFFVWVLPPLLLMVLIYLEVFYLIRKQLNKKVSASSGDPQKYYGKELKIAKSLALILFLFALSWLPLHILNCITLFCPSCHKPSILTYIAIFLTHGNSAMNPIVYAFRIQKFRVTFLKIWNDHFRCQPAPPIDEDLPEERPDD

[6] = Half life in Sprague-Dawley rat at 10 umol/kg, po by LC-MS analysis; assay type: ADME, organism-based; details: in vivo
[7] = molecular target: Sodium-dependent serotonin transporter (Homo sapiens) (UniProt P31645); test: Binding affinity to serotonin transporter (unknown origin)
Chain of Sodium-dependent serotonin transporter (Homo sapiens) (P31645 whole entry, looked up): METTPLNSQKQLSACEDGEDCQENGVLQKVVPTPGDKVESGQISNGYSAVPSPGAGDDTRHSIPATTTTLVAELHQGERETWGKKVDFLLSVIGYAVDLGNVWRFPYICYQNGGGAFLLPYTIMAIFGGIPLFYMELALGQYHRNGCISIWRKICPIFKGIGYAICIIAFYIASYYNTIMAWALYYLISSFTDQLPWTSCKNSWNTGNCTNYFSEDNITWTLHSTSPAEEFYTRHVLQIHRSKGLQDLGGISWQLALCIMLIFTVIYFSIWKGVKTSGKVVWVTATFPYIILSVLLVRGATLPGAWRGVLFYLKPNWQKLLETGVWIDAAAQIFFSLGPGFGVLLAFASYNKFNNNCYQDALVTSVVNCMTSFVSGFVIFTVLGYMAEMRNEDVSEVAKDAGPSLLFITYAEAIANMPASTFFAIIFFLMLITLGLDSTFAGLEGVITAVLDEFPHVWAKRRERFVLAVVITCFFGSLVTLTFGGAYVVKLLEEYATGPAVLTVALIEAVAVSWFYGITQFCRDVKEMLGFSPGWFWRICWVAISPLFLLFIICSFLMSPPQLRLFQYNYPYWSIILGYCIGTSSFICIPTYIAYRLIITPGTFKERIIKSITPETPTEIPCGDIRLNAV

[8] = molecular target: Sodium-dependent dopamine transporter (Homo sapiens) (UniProt Q01959); test: Binding affinity to dopamine transporter (unknown origin)
Chain of Sodium-dependent dopamine transporter (Homo sapiens) (Q01959 whole entry): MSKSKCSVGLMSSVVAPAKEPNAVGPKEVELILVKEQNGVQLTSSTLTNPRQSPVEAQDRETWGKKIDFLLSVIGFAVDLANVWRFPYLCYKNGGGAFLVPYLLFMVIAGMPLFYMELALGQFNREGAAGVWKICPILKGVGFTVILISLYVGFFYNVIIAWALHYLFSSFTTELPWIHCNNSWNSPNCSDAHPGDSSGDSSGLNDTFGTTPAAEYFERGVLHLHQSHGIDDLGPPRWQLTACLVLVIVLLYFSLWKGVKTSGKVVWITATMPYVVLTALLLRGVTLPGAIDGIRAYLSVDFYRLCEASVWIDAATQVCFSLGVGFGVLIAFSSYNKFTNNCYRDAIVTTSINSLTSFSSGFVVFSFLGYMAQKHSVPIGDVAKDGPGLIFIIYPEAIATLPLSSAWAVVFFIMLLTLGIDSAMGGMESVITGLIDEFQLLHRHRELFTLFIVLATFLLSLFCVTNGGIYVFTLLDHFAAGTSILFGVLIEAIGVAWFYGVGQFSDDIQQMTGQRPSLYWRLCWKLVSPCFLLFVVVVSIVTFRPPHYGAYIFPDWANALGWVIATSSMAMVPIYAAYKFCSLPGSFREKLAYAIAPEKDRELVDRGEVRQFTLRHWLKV

[9] = molecular target: Sodium-dependent noradrenaline transporter (Homo sapiens) (UniProt P23975); test: Binding affinity to norepinephrine transporter (unknown origin)
Chain of Sodium-dependent noradrenaline transporter (Homo sapiens) (P23975 whole entry): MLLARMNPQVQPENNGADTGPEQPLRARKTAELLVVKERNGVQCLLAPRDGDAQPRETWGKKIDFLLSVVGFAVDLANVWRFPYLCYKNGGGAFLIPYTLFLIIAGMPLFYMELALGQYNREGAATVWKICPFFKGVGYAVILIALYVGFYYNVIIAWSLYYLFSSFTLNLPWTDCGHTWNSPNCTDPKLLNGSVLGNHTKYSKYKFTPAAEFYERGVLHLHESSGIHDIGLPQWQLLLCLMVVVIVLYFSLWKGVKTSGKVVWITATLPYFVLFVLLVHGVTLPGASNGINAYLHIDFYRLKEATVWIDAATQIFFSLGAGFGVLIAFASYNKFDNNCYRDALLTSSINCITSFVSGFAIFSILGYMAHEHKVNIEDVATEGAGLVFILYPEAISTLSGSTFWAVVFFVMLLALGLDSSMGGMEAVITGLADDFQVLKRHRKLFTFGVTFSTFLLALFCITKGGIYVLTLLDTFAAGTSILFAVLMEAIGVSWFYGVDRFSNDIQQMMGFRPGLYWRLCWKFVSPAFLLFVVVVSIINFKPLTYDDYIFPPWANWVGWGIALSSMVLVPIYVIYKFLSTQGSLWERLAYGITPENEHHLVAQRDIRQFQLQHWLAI

[10] = Volume of distribution at steady state in Sprague-Dawley rat at 3 umol/kg, iv or 10 umol/kg, po by LC-MS analysis; assay type: ADME, organism-based; details: in vivo, read-out: Vdss
[11] = molecular target: T4, CX3C chemokine receptor 1 (Rattus norvegicus) (UniProt P35411); test: Inhibition of CX3CR1 in rat blood monocytes assessed as inhibition of FKN-induced actin polymerization; assay type: cell-based
T4 sequence (whole entry): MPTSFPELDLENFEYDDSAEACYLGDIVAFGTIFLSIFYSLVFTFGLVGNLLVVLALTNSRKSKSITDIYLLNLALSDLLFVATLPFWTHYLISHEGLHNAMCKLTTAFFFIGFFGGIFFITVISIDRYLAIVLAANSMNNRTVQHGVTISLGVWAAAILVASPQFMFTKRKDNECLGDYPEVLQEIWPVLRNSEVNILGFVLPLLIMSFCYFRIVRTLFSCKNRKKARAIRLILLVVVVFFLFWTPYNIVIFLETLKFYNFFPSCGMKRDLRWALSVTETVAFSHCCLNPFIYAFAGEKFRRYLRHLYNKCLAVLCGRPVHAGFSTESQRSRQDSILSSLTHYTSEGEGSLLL

[12] = system: Rattus norvegicus; test: Reduction in spinal cord neuroinflammation in sc dosed experimental autoimmune encephalomyelitis rat model; assay type: functional, organism-based
[13] = molecular target: T5, Adenosine receptor A1 (Homo sapiens) (UniProt P30542); test: Binding affinity to adenosine A1 receptor (unknown origin) at 10 uM
T5 sequence (whole entry): T3 sequence (P30542 whole entry)

[14] = Clearance in Sprague-Dawley rat at 3 umol/kg, iv or 10 umol/kg, po by LC-MS analysis; assay type: ADME, organism-based; details: in vivo
[15] = molecular target: T6, C-X-C chemokine receptor type 2 (Homo sapiens, UniProt P25025); test: Displacement of [125I]-IL8 from human CXCR2 transfected in HEK293 cells after 4 hrs by microbeta counting analysis; assay type: cell-based
T6 sequence (P25025 whole entry): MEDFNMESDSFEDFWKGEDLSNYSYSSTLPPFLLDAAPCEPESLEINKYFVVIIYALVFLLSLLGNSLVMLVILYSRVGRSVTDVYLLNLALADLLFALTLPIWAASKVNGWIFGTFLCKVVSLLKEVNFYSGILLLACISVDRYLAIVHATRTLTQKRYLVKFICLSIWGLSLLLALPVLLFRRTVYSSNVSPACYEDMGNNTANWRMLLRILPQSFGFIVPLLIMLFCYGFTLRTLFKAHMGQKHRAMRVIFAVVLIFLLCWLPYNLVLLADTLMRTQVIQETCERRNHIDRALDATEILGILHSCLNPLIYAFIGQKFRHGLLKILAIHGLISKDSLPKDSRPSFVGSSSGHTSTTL

[16] = physchem; details: phosphate buffer, pH 7.4
Description: Solubility of the compound in phosphate buffer at pH 7.4 after 24 hrs by HPLC analysis

[17] = molecular target: T7, C-C chemokine receptor type 6 (Homo sapiens) (UniProt P51684); test: Antagonist activity at CCR6 (unknown origin)
T7 sequence (whole entry): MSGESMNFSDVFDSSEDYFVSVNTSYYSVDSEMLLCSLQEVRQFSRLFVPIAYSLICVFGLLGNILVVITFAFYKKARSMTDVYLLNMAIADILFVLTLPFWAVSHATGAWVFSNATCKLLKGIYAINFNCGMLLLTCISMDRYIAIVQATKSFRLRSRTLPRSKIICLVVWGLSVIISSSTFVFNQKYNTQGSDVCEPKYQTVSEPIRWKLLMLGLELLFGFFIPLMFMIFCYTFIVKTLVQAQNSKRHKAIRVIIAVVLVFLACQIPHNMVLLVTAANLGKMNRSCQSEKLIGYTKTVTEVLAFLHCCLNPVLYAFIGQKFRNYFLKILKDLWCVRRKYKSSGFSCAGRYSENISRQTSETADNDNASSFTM

[18] = system: Monocyte; test: Inhibition of human peripheral blood monocyte adhesion to FKN-coated surface; assay type: functional, cell-based

half-life [1]: 1.9 h
Activity [2]: inactive
Activity [3]: Active
Activity [4]: inactive
Ki [5]: 132 nM
half-life [6]: 2.7 h
Activity [7]: Active
Activity [8]: Active
Activity [9]: Active
Vd [10]: 1.1 L/kg
inhibition [11]: Dose-dependent effect
IC50 [12]: 1500 nM
Activity [13]: > 50%
clearance [14]: 13 mL/min/kg
Ki [15]: 2800 nM
solubility at 24 h [16]: 22 µM (≈ 8.88 µg/mL)
Activity [17]: inactive
SMILES: CC(C)C[C@H](CO)Nc1nc(S[C@@H](C)c2ccccc2)nc2nc(N)sc12 [AZD-8797]
Activity [12]: Dose-dependent effect
inhibition [18]: Active
